Reference: PubChem BioAssay AID449764 (Southern Research Specialized Biocontainment Screening …, 2010)

System: Mycobacterium tuberculosis H37Rv growth inhibition, no glycerol
Assay: Confirmatory growth inhibition assay, Mycobacterium tuberculosis H37Rv, absence of glycerol (AID 449764);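 note: growth read after 7 days of incubation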
Details: for IC90: measured here: IC90 growth inhibition

| SMILES | IC50 [µM] | IC90 [µM] |
| --- | --- | --- |
| CN(C)CCCNC(=O)c1ccc(-c2nc(-c3ccc(Cl)cc3)cs2)cc1 | 26.4 | 33.8 |
| CN(C)CCCN1c2ccccc2Sc2ccc(Cl)cc21 | 46.6 | 60 |
| CON(C)c1nc(C2CCCCC2)c2cc(C)ccc2n1 | 57.4 | 68.2 |
| CCOCCN1CCN(c2c(CC)c(C)nc3cc(-c4cc(OC)cc(OC)c4)nn23)CC1 | 24.5 | 38.2 |
| CCC(=O)NC(=S)Nc1ccc(NC(=O)COc2ccc(Cl)cc2Cl)cc1 | 79.3 | > 100 |
| CO[C@@]12[C@H](COC(N)=O)C3=C(C(=O)C(C)=C(N)C3=O)N1C[C@@H]1N[C@@H]12 | 74.9 | > 100 |
| Clc1ccc(CNc2nc(CN3CCOCC3)nc3scc(-c4ccccc4)c23)cc1 | 33.5 | 42.1 |
| COCCOC(=O)c1ccc(NC(=O)COc2ccc([N+](=O)[O-])cc2)cc1 | – | > 100 |
| COc1cccc(NC(=S)/C(=C(\[O-])c2cc(C)n(-c3ccccc3F)c2C)[n+]2ccc(N(C)C)cc2)c1 | 70.2 | 90.3 |
| Cc1ccc(NC(=O)CSc2nc3ccccc3c(=O)n2CCCN2CCCCC2)cc1Cl | 36.6 | 79.2 |
| CN(C)C1(CNC(=O)Nc2ccc(Cl)c(Cl)c2)CCCCC1 | 11.8 | 13.1 |
| O=C(CSc1ccc(Cl)cc1)N1CCC(c2nc3ccccc3s2)CC1 | 53.8 | 68.3 |
| CC(C)(C)c1ccc(C(=O)NC(=S)NNC(=O)COc2ccccc2)cc1 | 28.8 | 42.9 |
| COc1ccc(CN2CCN(C(c3ccc(F)cc3)c3ccc(F)cc3)CC2)c(OC)c1OC | 22.9 | 40.5 |
| Cc1ccnc(NC(=O)CCc2c[nH]c3ccccc23)c1 | 21.5 | 31.9 |
| C/C(=N\NC(=S)Nc1cccc(C)c1)c1cccc(N)c1 | 21.6 | 23.7 |
| OC(CN1CCN(c2ccccn2)CC1)Cn1c2ccccc2c2ccccc21 (centres undefined) | 42 | 55.1 |
| c1ccc(-c2nccc(-c3ccc(-n4cnc5ccccc54)cc3)n2)nc1 | 19 | 23.7 |
| CC(C)NC(=S)N/N=C/c1c[nH]c2ccccc12 | – | > 100 |
| CC1(C)CC(NC(=O)c2ccc(Cl)c(S(=O)(=O)N(Cc3ccccc3)c3ccccc3)c2)CC(C)(C)N1 | 28.3 | 43.4 |
| CSc1nc2nc3c(c(=O)n2[nH]1)CCCC3 | 23.8 | > 100 |
| COC(=O)C1C2c3ccccc3OC1(C)N=c1s/c(=C/c3cnn(C)c3C)c(=O)n12 (centres undefined) | 6.44 | 41.1 |

| SMILES | IC50 [µM] | IC90 [µM] |
| --- | --- | --- |
| O=C(Nc1cccc(-c2csc(Nc3ccc(Cl)cc3)n2)c1)c1cccc(C(F)(F)F)c1 | 43.8 | > 100 |
| Nc1nc2ccccc2n1CCOc1ccccc1Cl | 20.3 | 23.1 |
| O=C1NCC(O)=C1C=Nc1ccccc1O | 5.54 | 7.6 |
| C=CCOc1ccccc1CN(C(=O)CCl)c1ccc2c(c1)OCO2 | 2.7 | 3.72 |
| O=[N+]([O-])c1cc(-c2nc(-c3ccncc3)no2)cc([N+](=O)[O-])c1 | 10.4 | 20.5 |
| CC(OC(=O)COc1ccc(Nc2ccccc2)cc1)C(=O)N(C)c1ccccc1 (centres undefined) | 2.16 | 10.9 |
| Cc1cccc(/C=c2\s/c(=C\C(=O)C(C)(C)C)[nH]c2=O)c1 | 12.4 | 31.7 |
| CCCCCn1c(=O)c2ccccc2n2c(CCl)nnc12 | 1.36 | 6.07 |
| COC(=O)COc1ccc(-c2ccccc2)cc1C=O | 16.1 | 26 |
| CCN1CCN(Cc2ccc(NC(=O)c3ccc(C)c(/C=C/c4cnc(Nc5cc(N6CCNCC6)nc(C)n5)cn4)c3)cc2C(F)(F)F)CC1 | 66.6 | 89.8 |
| O=C(NCCCN1CCOCC1)c1cc2c([nH]c3ccccc32)c(-c2cccc(Br)c2)n1 | 18.6 | 24.3 |
| O=C1CCCC2=C1C1c3ccccc3C(=O)N1c1ccc(C(=O)c3ccccc3)cc1N2 (centres undefined) | 22 | 24.4 |
| O=[N+]([O-])c1cc([N+](=O)[O-])c2c(=Nc3ccccc3)n(-c3ccccc3)n(O)c2c1 | 8.32 | 10.3 |
| CNC(=O)COC(=O)c1ccc(-c2nc3ccccc3s2)s1 | 9.68 | 16.3 |
| COC(=O)c1c(NC(=S)NN2CCN(C)CC2)sc2c1CCC(C)C2 (centres undefined) | 22.8 | 26.6 |
| Cc1nonc1NC(=O)CSc1ccc(-c2ccccc2)nn1 | 41.2 | 58.9 |
| CC(C)(O)C#Cc1ccc(C(=O)Nc2ccc3c(c2)OCO3)s1 | 42.9 | > 100 |
| O=C1c2cccc3c([N+](=O)[O-])ccc(c23)C(=O)N1O | 11.9 | 13.5 |
| CCOC(=O)c1nn(-c2ccc(C)c(C)c2)cc1O | 99.8 | > 100 |
| COc1ccc(Nc2nc(N3CCCCC3)nc3ccccc23)c(OC)c1 | 22.7 | 26 |
| Fc1ccc2[nH]c3c(NCc4ccccc4)ncnc3c2c1 | 23.8 | 27 |
